The nature of data set [1]: in vitro. To be noted: human, liver microsomes. For orientation: Liver microsomes are a subcellular fraction often used to study metabolism.
Data set [2] is described as follows: in vitro. The settings on record: mouse, liver microsomes.
Data set [3] is described as follows: in vitro. The settings on record: rat, liver microsomes.
Data set [4] is described as follows: in vitro. The settings on record: human, liver microsomes. This is another data set of the same source.
A short description of data set [5]: in vitro. To be noted: mouse, liver microsomes. The source holds these as a separate data set.
Data set [6] is described as follows: Cmax in athymic nude mouse at 25 mg/kg, sc measured after 24 hrs by LC/MS analysis. The class given is ADME, organism-based. The settings on record: in vivo.
The nature of data set [7]: Tmax in athymic nude mouse at 8 to 75 mg/kg, sc by LC/MS analysis. The class given is ADME, organism-based. To be noted: in vivo, dose 8-75 mg/kg.
A short description of data set [8]: Cmax in athymic nude mouse at 75 mg/kg, sc measured after 24 hrs by LC/MS analysis. Format: ADME, organism-based. To be noted: in vivo.
The nature of data set [9]: Metabolic stability in rat liver microsomes assessed as half-life. The class given is ADME, Microsome.
Data set [10] in a line: Bioavailability in mouse at 50 mg/kg, sc. To be noted: in vivo. Format: ADME, organism-based.
Data set [11] can be described thus: Cmax in athymic nude mouse at 8 mg/kg, sc measured after 24 hrs by LC/MS analysis. Format: ADME, organism-based. To be noted: in vivo.
Data set [12] can be described thus: Intrinsic clearance in mouse. To be noted: in vivo. The class given is ADME, organism-based.

With `CCOc1cc(-c2ccc(N3CCC(CN4CCN(C(=O)CCN5CCC(c6ccc7c(c6)C(=O)N(C6CCC(=O)NC6=O)C7)CC5)CC4)(NC(=O)c4cc(F)ccc4F)CC3)nc2)c2c(C#N)cnn2c1` (stereo not given), the half-life – broadly, how long it takes for the measured level to halve – in data set [1] came to 0.867 h; in data set [2], 0.933 h. Further, the share remaining (commonly what is left of the initial amount, in per cent) at 10 min in data set [3] was 89%; in [4] it was 82%; in data set [5], 85%.

Consider `CCOc1cc(-c2ccc(N3CCC(CN4CCN(C(=O)C5CC(N6CCC(c7ccc8c(c7)C(=O)N(C7CCC(=O)NC7=O)C8)CC6)C5)CC4)(NC(=O)c4cc(F)ccc4F)CC3)nc2)c2c(C#N)cnn2c1` (stereo not given), for which the results for the highest concentration (Cmax) in data set [6], in data set [8] and in data set [11] were 4.3 µM, 8.09 µM and 0.708 µM, respectively. In addition, the Tmax (as a rule, the time at which the peak concentration occurs) in [7] worked out at 1 h. The half-life in data set [1] is 1.48 h; in [2], greater than 2 h; in [9] it was greater than 2 h. Moreover, the bioavailability (usually the share of a dose that reaches the circulation, judged against a reference dose that is usually intravenous) in [10] stood at 30%.

As to `CCOc1cc(-c2ccc(N3CCC(CN4CCN(C(=O)C5CC6(C5)CC(N5CCN(c7ccc8c(c7)CN(C7CCC(=O)NC7=O)C8=O)CC5)C6)CC4)(NC(=O)c4cc(F)ccc4F)CC3)nc2)c2c(C#N)cnn2c1` (stereo not given), the figures for the half-life in [1] and in data set [2] were greater than 2 h and 1.53 h, respectively. For the same molecule, the fraction remaining at 10 min in data set [3] came out at 100%; in data set [4], 84%; in data set [5], 81%.

In the case of `CCOc1cc(-c2ccc(N3CCC(CN4CCC(C(=O)N5CC(N6CCC(c7ccc8c(c7)C(=O)N(C7CCC(=O)NC7=O)C8)CC6)C5)CC4)(NC(=O)c4cc(F)ccc4F)CC3)nc2)c2c(C#N)cnn2c1` (stereo not given), the figures for the half-life in [1] and in [2] were greater than 2 h and 1.57 h, respectively.

`CCOc1cc(-c2ccc(N3CCC(CN4CCN(C(=O)CCN5CCC(c6ccc7c(c6)CN(C6CCC(=O)NC6=O)C7=O)CC5)CC4)(NC(=O)c4cc(F)ccc4F)CC3)nc2)c2c(C#N)cnn2c1` (stereo not given): the half-life in data set [1] stood at 1.02 h; in data set [2], 0.95 h. The amount remaining at 10 min in data set [3] stood at 94%; in data set [4], 85%; in data set [5] it was 82%.

Consider `CCOc1cc(-c2ccc(N3CCC(CN4CCN(C(=O)CCN5CCC(c6ccc7c(c6)C(=O)N([C@H]6CCC(=O)NC6=O)C7)CC5)CC4)(NC(=O)c4cc(F)ccc4F)CC3)nc2)c2c(C#N)cnn2c1`, for which the half-life in data set [1] and in data set [2] was greater than 2 h throughout. The fraction remaining at 10 min is 100% in data set [3], 100% in [4] and 80% in data set [5].

On to `CCOc1cc(-c2ccc(N3CCC(CN4CCN(C(=O)CCCCCCN5CCC(c6ccc7c(c6)CN(C6CCC(=O)NC6=O)C7=O)CC5)CC4)(NC(=O)c4cc(F)ccc4F)CC3)nc2)c2c(C#N)cnn2c1` (stereo not given), for which the half-life in data set [1] came to 0.583 h; in data set [2], 1.55 h. For the same molecule, the amount remaining at 10 min is 88% in data set [3], 78% in [4] and 80% in [5].

On to `CCOc1cc(-c2ccc(N3CCC(CN4CCN(C(=O)CCCCCCN5CCN(c6ccc7c(c6)CN(C6CCC(=O)NC6=O)C7=O)CC5)CC4)(NC(=O)c4cc(F)ccc4F)CC3)nc2)c2c(C#N)cnn2c1` (stereo not given), for which the results for the half-life in data set [1] and in [2] were 0.133 h and 0.467 h, respectively. The fraction remaining at 10 min in data set [3] is 84%; in data set [4], 40%; in data set [5] it was 70%. The intrinsic clearance (CLint scaled) (in general, a measure of how fast metabolising enzymes remove a compound, apart from limits set by blood flow) in [12] turned out to be 32 mL/min/kg.

Turning to `CCOc1cc(-c2ccc(N3CCC(CN4CCN(C(=O)CCN5CCC(c6ccc7c(c6)C(=O)N(C6CCC(=O)NC6=O)C7)CC5)CC4)(NC(=O)c4ncccc4F)CC3)nc2)c2c(C#N)cnn2c1` (stereo not given), the fraction remaining at 10 min in [3] worked out at 97%; in [4], 79%; in [5], 100%.

For the molecule `CCOc1cc(-c2ccc(N3CCC(COCC(=O)N4CCC(CN5CCN(c6ccc7c(c6)CN(C6CCC(=O)NC6=O)C7=O)CC5)CC4)(NC(=O)c4cc(F)ccc4F)CC3)nc2)c2c(C#N)cnn2c1` (stereo not given), the share remaining at 10 min in [3] worked out at 81%; in data set [4] it was 10%; in data set [5] it was 68%.

In the case of `CCOc1cc(-c2ccc(N3CCC(CN4CCN(C(=O)CCCCN5CCC(c6ccc7c(c6)CN(C6CCC(=O)NC6=O)C7=O)CC5)CC4)(NC(=O)c4cc(F)ccc4F)CC3)nc2)c2c(C#N)cnn2c1` (stereo not given), the half-life in data set [1] came to 1.4 h; in data set [2] it was 1.42 h. Further, the fraction remaining at 10 min was determined as 100% in data set [3], 88% in [4] and 85% in data set [5].

As for `COc1ccc(CN2[C@@H]3C[C@H]2CN(c2ccc(-c4cc(OCC(C)(C)O)cn5ncc(C#N)c45)cn2)C3)cn1`, the fraction remaining at 10 min was found to be 89% in [3], 58% in data set [4] and 63% in data set [5].

On to `CCOc1cc(-c2ccc(N3CCC(CN4CCN(C(=O)CCN5CCC(c6ccc7c(N8CCC(=O)NC8=O)nn(C)c7c6)CC5)CC4)(NC(=O)c4cc(F)ccc4F)CC3)nc2)c2c(C#N)cnn2c1`, for which the results for the half-life in [1] and in data set [2] were 0.7 h and 1.73 h, respectively. Besides, the share remaining at 10 min in data set [3] was determined as 75%; in data set [4] it was 81%; in data set [5] it was 88%.

As to `CCOc1cc(-c2ccc(N3CCC(CN4CCN(C(=O)CCN5CCC(c6ccc7c(c6)C(=O)N([C@@H]6CCC(=O)NC6=O)C7)CC5)CC4)(NC(=O)c4cc(F)ccc4F)CC3)nc2)c2c(C#N)cnn2c1`, the half-life is 1.28 h in data set [1] and greater than 2 h in data set [2]. The amount remaining at 10 min turned out to be 100% in [3], 98% in data set [4] and 100% in data set [5].
